Among the data in patent US10766869B2, “Triazoles for the treatment of demyelinating dieases” (Vertex Pharmaceuticals Incorporated, priority 2015, dated 2020) are fold induction values, retold here.

Where two headings read alike, the source gives them in different places. Where only a bound is given, the exact number is not on record here.

The test system of the test is primary rat mixed cortical cells. As to the kind of experiment: In vitro myelination assay (MBP positive myelin strands, fold myelin pixels above background). Format: cell-based. The settings on record: Rattus norvegicus; for fold induction at 1 µM: 1.0 μM compound; for fold induction at 10 µM: 10.0 μM compound. An excerpt:
In Vitro Myelination Assay
Compounds were screened for their ability to induce myelination using a primary rat mixed cortical cell culture assay, which contains neurons, oligodendrocyte precursor cells, oligodendrocytes, astrocytes and microglia. The assay quantifies myelination by measuring myelin basic protein (MBP) immunofluorescent positive myelin strands from images taken using a Cellomics Array Scan (model Arrayscan VTI HCS Reader) or a Molecular Devices Image Xpress (model IXM XL) high content imager. The myelin strands were quantitated using a custom created myelin detection software program. Test compounds were dissolved in DMSO to make a 10 mM initial stock solution. Dilutions were made in myelination medium to obtain the final solutions for the assay and were tested in primary rat mixed cortical cells at selected doses.
Primary rat mixed cortical cells were prepared from harvested cerebral cortices from postnatal day 1 (P1) rats (P1 Rat CD® IGS pups) were purchased from Charles River) in Complete Dissociation Medium, wherein the meninges were removed and the cortical tissue chopped with a razor blade into ˜1 mm^3 pieces. Tissue from 1-3 pups was collected and placed into 15 ml conical tubes in a total volume of 5 ml of Complete Dissociation Medium. Activated papain (3 ml) was added to each 15 ml conical tube and tissue was incubated at 37° C. for 30 minutes. After the 30 minute incubation, DNase (Sigma D4527; 75 μl of a 1 mg/ml stock) was added to each tube, followed by mechanical trituration using a 2 ml serological pipette and autopipettor to gently dissociate the tissue. Following trituration, larger tissue pieces were allowed to settle by gravity, and the supernatant containing dissociated cells was transferred to a 50 ml conical tube with 4 ml of trypsin inhibitor. Cells were pelleted by centrifugation, resuspended in myelination medium and filtered through a 40 μm filter. Cells were then seeded in 96-well plates (BD Biosciences, Black, PDL-coated, Cat. No. 356640) at 87,500-95,000 cells/well in a final volume of 200 μl of Myelination Medium in the presence or absence of compound and cultured for 14 days in a humidified 37° C. incubator with 5% CO2. Half the medium was removed and replaced with fresh medium containing 1× compound on days 6 and 10. Using a Biotek automatic plate washer (model Biomek® FXP Laboratory Automation Workstation), cells were fixed with 4% paraformaldehyde on day 14, washed with PBS and blocked in 5% normal goat serum (Vector Laboratories, S-1000) in 0.1% PBS-TritonX-100 (PBST) for 1 hour. Cells were stained with 1:500 anti-MBP (Covance, cat # SMI99) primary antibody in 1% normal goat serum in 0.1% PBST for 2 hours at room temperature followed by 2 washes with PBST. A final incubation in secondary antibody (1:1000, Invitrogen, Alexa-488 anti-mouse IgG2b) and 1:10,000 Hoechst dye in 1% normal goat serum in 0.1% PBST was performed for 2 hours at room temperature. Plates were washed with PBS and then scanned on a Cellomics Array Scan using a 10× objective (25 images per well) or the Image Xpress using a 10× objective (9 image per well). Images were analyzed using Vertex myelin detection software (described below) to quantify total MBP myelin pixels per well. Fold myelin pixels above background at two concentrations (1.0 μM and 10.0 μM) relative to baseline of no added compound are reported below in Table 4. Standard deviation for each compound concentration was calculated using all replicates and using a standard deviation formula commonly used in the art.
One of skill in the art would recognize that for this type of primary neuronal mixed cell assay variability between different assay runs is to be expected even though the protocol is the same for each assay run. For instance, variability may be due to small differences in cell viability, cell density, age of the animals, etc.
Vertex Myelin Detection Software: […]

Setting [1] is: relative to baseline of no added compound, read-out: Fold myelin pixels above background, 1.0 μM.
Setting [2] is: relative to baseline of no added compound, read-out: Fold myelin pixels above background, 10.0 μM.
The mark [3] stands for this setting: relative to baseline of no added compound, read-out: Fold myelin pixels above background.
The mark [4] stands for this setting: read-out: Fold myelin pixels above background relative to baseline of no added compound.

As to `Cc1cc(Nc2ncn(-c3cccc(F)c3)n2)cc(C2COC2)c1` [Compound 147, 1-(3-fluorophenyl)-N-[3-methyl-5-(oxetan-3-yl)phenyl]-1,2,4-triazol-3-amine], the fold induction at 1 µM under setting [1] lay within 1000 to 10000. In addition, under setting [2], the fold induction at 10 µM was in the range of 10 to 100.
As to `Cc1cc(Nc2ncn(-c3ccc(F)cc3)n2)cc(C2COC2)c1` [Compound 409, 1-(4-fluorophenyl)-N-[3-methyl-5-(oxetan-3-yl)phenyl]-1,2,4-triazol-3-amine], under setting [3], the fold induction at 1 µM is 1000 to 10000 and the fold induction at 10 µM is 100 to 1000.
For `COCC1CCN(c2cc(C)cc(Nc3ncn(-c4ccccc4)n3)c2)CC1` [Compound 481, N-[3-[4-(methoxymethyl)-1-piperidyl]-5-methyl-phenyl]-1-phenyl-1,2,4-triazol-3-amine], under setting [3], the fold induction at 1 µM was 100 to 1000 and the fold induction at 10 µM was 100 to 1000.
Take `CCc1cc(Nc2ncn(-c3ccccc3)n2)cc(N2CCN(C3COC3)CC2)c1` [Compound 330, N-[3-ethyl-5-[4-(oxetan-3-yl)piperazin-1-yl]phenyl]-1-phenyl-1,2,4-triazol-3-amine]: the fold induction at 1 µM under setting [1] was 1000 to 10000. The fold induction at 10 µM under setting [2] is no more than 1.
As for `Cc1ccc(-n2cnc(Nc3cc(C)cc(N4CCCC4)c3)n2)cc1` [Compound 372, N-(3-methyl-5-pyrrolidin-1-yl-phenyl)-1-(p-tolyl)-1,2,4-triazol-3-amine], under setting [1], the fold induction at 1 µM was 1 to 10. In addition, under setting [2], the fold induction at 10 µM lay in the range of 10 to 100.
As for `CCC(CNc1cc(C)cc(Nc2ncn(-c3cc(F)cc(F)c3)n2)c1)N1CCOCC1` (centres unmarked) [Compound 985, N3-[1-(3,5-difluorophenyl)-1,2,4-triazol-3-yl]-5-methyl-N1-(2-morpholinobutyl)benzene-1,3-diamine], under setting [4], the fold induction at 1 µM is 1 to 10 and the fold induction at 10 µM was 1 to 10.
Regarding `Cc1cc(Nc2ncn(-c3ccc(F)cc3)n2)cc(N2CCN(C3(C)COC3)CC2)c1` [Compound 695, 1-(4-fluorophenyl)-N-[3-methyl-5-[4-(3-methyloxetan-3-yl)piperazin-1-yl]phenyl]-1,2,4-triazol-3-amine], under setting [3], the fold induction at 1 µM fell in the range of 1 to 10 and the fold induction at 10 µM was 1 to 10.
Take `Cc1cc(Nc2ncn(-c3ccccc3)n2)cc(N2CCN(C3CCCOC3)CC2)c1` (centres unmarked) [Compound 172, N-[3-methyl-5-(4-tetrahydropyran-3-ylpiperazin-1-yl)phenyl]-1-phenyl-1,2,4-triazol-3-amine]: the fold induction at 1 µM under setting [1] is 1000 to 10000. Further, the fold induction at 10 µM under setting [2] lay in the range of 1 to 10.
Regarding `Cc1cc(NCC2(N3CCCC3)COC2)cc(Nc2ncn(-c3cc(F)cc(F)c3)n2)c1` [Compound 1020, N1-[1-(3,5-difluorophenyl)-1,2,4-triazol-3-yl]-5-methyl-N3-[(3-pyrrolidin-1-yloxetan-3-yl)methyl]benzene-1,3-diamine], under setting [4], the fold induction at 1 µM fell in the range of 10 to 100 and the fold induction at 10 µM is 1 to 10.
For the molecule `COC1CCCN(c2cc(C)cc(Nc3ncn(-c4cc(F)cc(F)c4)n3)c2)C1` (centres unmarked) [Compound 293, 1-(3,5-difluorophenyl)-N-[3-(3-methoxy-1-piperidyl)-5-methyl-phenyl]-1,2,4-triazol-3-amine], the fold induction at 1 µM under setting [1] is 10 to 100. Besides, the fold induction at 10 µM under setting [2] is 10 to 100.
With `CCc1cc(Nc2ncn(-c3cccc(C(F)F)c3)n2)cc(N2CCN(C3COC3)CC2)c1` [Compound 736, 1-[3-(difluoromethyl)phenyl]-N-[3-ethyl-5-[4-(oxetan-3-yl)piperazin-1-yl]phenyl]-1,2,4-triazol-3-amine], under setting [3], the fold induction at 1 µM fell in the range of 10 to 100 and the fold induction at 10 µM was no more than 1.
In the case of `CN(C)C1CCN(c2cc(F)cc(Nc3ncn(-c4cccc(F)c4)n3)c2)C1` (centres unmarked) [Compound 109, N-[3-[3-(dimethylamino)pyrrolidin-1-yl]-5-fluoro-phenyl]-1-(3-fluorophenyl)-1,2,4-triazol-3-amine], the fold induction at 1 µM under setting [1] is 10 to 100. For the same molecule, the fold induction at 10 µM under setting [2] is no more than 1.
Regarding `Cc1cc(NCC2CCCC2N2CCOCC2)cc(Nc2ncn(-c3cc(F)cc(F)c3)n2)c1` (centres unmarked) [Compound 895, N1-[1-(3,5-difluorophenyl)-1,2,4-triazol-3-yl]-5-methyl-N3-[(2-morpholinocyclopentyl)methyl]benzene-1,3-diamine], under setting [4], the fold induction at 1 µM was 10 to 100 and the fold induction at 10 µM was 1 to 10.
As for `CCOCCN1CCN(c2cc(C)cc(Nc3ncn(-c4cc(F)cc(F)c4)n3)c2)CC1C` (centres unmarked) [Compound 1063, 1-(3,5-difluorophenyl)-N-[3-[4-(2-ethoxyethyl)-3-methyl-piperazin-1-yl]-5-methyl-phenyl]-1,2,4-triazol-3-amine], under setting [4], the fold induction at 1 µM was 10 to 100 and the fold induction at 10 µM is no more than 1.
For the molecule `Cc1cc(Nc2ncn(-c3cc(F)cc(F)c3)n2)cc(N2CCC(CN3CCOCC3)CC2)c1` [Compound 984, 1-(3,5-difluorophenyl)-N-[3-methyl-5-[4-(morpholinomethyl)-1-piperidyl]phenyl]-1,2,4-triazol-3-amine], under setting [4], the fold induction at 1 µM was in the range of 10 to 100 and the fold induction at 10 µM is no more than 1.
As for `CNC(=O)c1cc(Nc2ncn(-c3cc(F)cc(F)c3)n2)nc(N2CCN(C3COC3)CC2)c1` [Compound 664, 2-[[1-(3,5-difluorophenyl)-1,2,4-triazol-3-yl]amino]-N-methyl-6-[4-(oxetan-3-yl)piperazin-1-yl]pyridine-4-carboxamide], under setting [3], the fold induction at 1 µM was 1 to 10 and the fold induction at 10 µM lay within 1 to 10.
As to `CC(F)(F)c1cc(Nc2ncn(-c3cc(F)cc(F)c3)n2)nc(N2CCN(C3COC3)CC2)c1` [Compound 685, 4-(1,1-difluoroethyl)-N-[1-(3,5-difluorophenyl)-1,2,4-triazol-3-yl]-6-[4-(oxetan-3-yl)piperazin-1-yl]pyridin-2-amine], under setting [3], the fold induction at 1 µM was 10 to 100 and the fold induction at 10 µM lay in the range of 1 to 10.
Turning to `CCc1cc(Nc2ncn(-c3ccnc(C)n3)n2)cc(N2CCN(C3COC3)CC2)c1` [Compound 91, N-[3-ethyl-5-[4-(oxetan-3-yl)piperazin-1-yl]phenyl]-1-(2-methylpyrimidin-4-yl)-1,2,4-triazol-3-amine], the fold induction at 1 µM under setting [1] is no more than 1. Besides, the fold induction at 10 µM under setting [2] lay in the range of 100 to 1000.
For the molecule `Cc1cc(Nc2ncn(-c3cncnc3)n2)cc(N2CCN(C)CC2)c1` [Compound 381, N-[3-methyl-5-(4-methylpiperazin-1-yl)phenyl]-1-pyrimidin-5-yl-1,2,4-triazol-3-amine], the fold induction at 1 µM under setting [1] is 1 to 10. For the same molecule, the fold induction at 10 µM under setting [2] lay in the range of 100 to 1000.
With `CS(=O)(=O)c1cc(Nc2ncn(-c3cc(F)cc(F)c3)n2)cc(N2CCN(C3COC3)CC2)c1` [Compound 344, 1-(3,5-difluorophenyl)-N-[3-methylsulfonyl-5-[4-(oxetan-3-yl)piperazin-1-yl]phenyl]-1,2,4-triazol-3-amine], the fold induction at 1 µM under setting [1] lay in the range of 100 to 1000. In addition, under setting [2], the fold induction at 10 µM was 10 to 100.
Take `Cc1cc(Nc2ncn(-c3cc(F)ccc3F)n2)cc(N2CCNCC2)c1` [Compound 558, 1-(2,5-difluorophenyl)-N-(3-methyl-5-piperazin-1-yl-phenyl)-1,2,4-triazol-3-amine]: under setting [3], the fold induction at 1 µM lay in the range of 10 to 100 and the fold induction at 10 µM was no more than 1.
Consider `CC(=O)N1CCN(c2cc(Nc3ncn(-c4ccccc4)n3)cc(C(F)F)c2)CC1` [Compound 144, 1-[4-[3-(difluoromethyl)-5-[(1-phenyl-1,2,4-triazol-3-yl)amino]phenyl]piperazin-1-yl]ethanone], for which the fold induction at 1 µM under setting [1] was in the range of 100 to 1000. In addition, the fold induction at 10 µM under setting [2] is no more than 1.
